Results on five molecules are retold here after patent publication US7541463B2, “Sulfur-containing naphthalimide derivatives” (East China University of Science and Technology, priority 2003, dated 2009).

The subject of data set [1] is human gastric adenocarcinoma SGC-7901. The data set is described as follows: Growth inhibition of SGC-7901 cells (MTT or SRB assay). It counts as cell-based. The following applies: read-out: Growth inhibition effect to SGC-7901 cell strain; for inhibition at 100 µM: 10^−4 M; for inhibition at 10 µM: 10^−5 M; for inhibition at 1 µM: 10^−6 M; for inhibition at 0.1 µM: 10^−7 M; for inhibition at 0.01 µM: 10^−8 M. How it is done:
(§1) The procedure of MTT assay was as follows: appropriate amount of cells in log phase were seeded in 96-well plates (6000 cells/well, 15000 cells/well, 90ul/well) according to the growing rate. After cultured for 24 h, cells were exposed to serial dilutions of drugs in triplicate (10 ul/well). In addition, wells without cell, and wells without cell but with serial dilutions of drugs in case of using a colored-drug were set for zeroing. Then, the cells were cultured in 5% CO2 humidified incubator at 37° C. for 48 h. After treatment of drugs for 48 h, 20ul MTT (Sigma) which was diluted by normal saline to the concentration of 5 mg/ml was added to each well, 50ul/well 10%SDS-5% isobutanol-0.01% mol/LHCl was added after 4 h. After cultured overnight, absorbance was measured at 570 nm using a multiwell spectrophotometer. The inhibition effect of the compounds in test (percentage of growth inhibition) was calculated for each well: % inhibition=(OD570control cells−OD570treated cells)/OD570control cells×100%.
(§2) The procedure of SRB assay was as follows: appropriate amount of cells in log phase were seeded in 96-well plates according to the growing rate (90 ul/well). After cultured for 24 h, cells were exposed to serial dilutions of drugs in triplicate (10 ul/well). In addition, control wells of normal saline in corresponding concentrations and zeroing wells without cell were set. The cells were incubated in 5% CO2 humidified incubator at 37° C. After 72 h, the medium was removed and cells were fixed with cold 10% trichloric acid (TCA) at 4° C. for 1 h. The plates were washed with distilled water 5 times, and stained in room temperature with 4 mg/ml SRB (Sigma, diluted with 1% glacial acetic acid, 100 ul/well) for 15 minutes after air drying. SRB was then washed with 1% acetic acid 5 times. Plates were dried, followed by adding 150 ul/well Tris solution. Absorbance was measured at […] using a multiwell spectrophotometer. The inhibition effect of the compounds in test (percentage of growth inhibition) was calculated for each well: % inhibition=(A540control cells−A540treated cells)/A540control cells×100%.
(§3) The methods used were MTT assay or SRB assay.
(§4) The cell lines used were mice leukemia cell P388, human leukemia cell MOLT-4, human lung adenocarcinoma cell A-549, human gastric adenocarcinoma SGC-7901, human hepatocellular carcinoma BEL-7402 and human embryonal fibroblast WI-38 (commerially available from ATCC).
(§5) The exposure time to compounds was 48 h-72 h.
A general note: Formazan colour is commonly taken as a measure of viable cells.

In data set [2] the test system is human hepatocellular carcinoma BEL-7402. The data set is described as follows: Growth inhibition of BEL-7402 cells (MTT or SRB assay). It counts as cell-based. The following applies: read-out: Growth inhibition effect to BEL-7402 cell strain; for inhibition at 100 µM: 10^−4 M; for inhibition at 10 µM: 10^−5 M; for inhibition at 1 µM: 10^−6 M; for inhibition at 0.1 µM: 10^−7 M; for inhibition at 0.01 µM: 10^−8 M. As for the experimental part:
as §1, §2, §3, §4, §5

Data set [3] concerns human leukemia cell MOLT-4. The data set can be described thus: Growth inhibition of MOLT-4 cells (MTT or SRB assay). The following applies: read-out: Growth inhibition effect to MOLT-4 cell strain; for inhibition at 100 µM: 10^−4 M; for inhibition at 10 µM: 10^−5 M; for inhibition at 1 µM: 10^−6 M; for inhibition at 0.1 µM: 10^−7 M; for inhibition at 0.01 µM: 10^−8 M. The data set is classed as cell-based. As for the experimental part:
as §1, §2, §3, §4, §5

The subject of a further data set is mice leukemia cell P388. The data set can be described thus: Growth inhibition of P388 cells, MTT assay. It counts as cell-based. The following applies: Mus musculus, read-out: Growth inhibition effect to P388 cell strain; for inhibition at 100 µM: 10^−4 M; for inhibition at 10 µM: 10^−5 M; for inhibition at 1 µM: 10^−6 M; for inhibition at 0.1 µM: 10^−7 M; for inhibition at 0.01 µM: 10^−8 M. How it is done:
(§6) The cell growth inhibition of mice leukemia cell P388 was evaluated by MTT (microculture tetrozolium) assay, while the cell growth inhibition of human lung adenocarcinoma cell A-549 was evaluated by SRB (Sulforhodamine B) protein staining assay.
as §1, §4, §5

In data set [4] the test system is human lung adenocarcinoma cell A-549. The data set can be described thus: Growth inhibition of A-549 cells, SRB protein staining assay. It counts as cell-based. The note with it: read-out: Growth inhibition effect to A-549 cell strain; for inhibition at 100 µM: A549, 10^−4 M; for inhibition at 10 µM: A549, 10^−5 M; for inhibition at 1 µM: A549, 10^−6 M; for inhibition at 0.1 µM: A549, 10^−7 M; for inhibition at 0.01 µM: A549, 10^−8 M. How it is done:
as §6, §2, §4, §5

The test system of the next data set is S-180 sarcoma. The data set is described as follows: In vivo tumor growth inhibition, S-180 sarcoma in mice. The following applies: i.p. injection, listed as C9. As for the experimental part: S-180 sarcoma developed for 7-11 days and in good growth trend was homogenated into cell suspension. The cell suspension was inoculated subcutaneously into right armpit of female KM mice (18˜22 g) (about 1.0−2.5×10^6 cells/mouse). After 24 h, the mice were grouped in random with compounds administrated by i.p. injection. From the next day on, the mice were given serial dosages. After treatment, animals were killed, and solid tumors were removed and weighed after the body weight were weighed. The inhibition rate was calculated as follows, and T-test was carried out: [(Average tumor weight of NS group−Average tumor weight of test group)/Average tumor weight of NS group]×100%.

Entries after “also recorded” stand apart in the source; their conditions may differ.

Usually inhibition stands for the relative decrease from the control value, in per cent. As a reminder, the melting point is the temperature, or range, at which the solid turns liquid.

For `CCCCn1c(=O)c2ccc3sc4ccccc4c4ccc(c1=O)c2c34` [compound 1, N-butyl benzo[k, l]thioxanthene-3,4-dicarboximide], the melting point was in the range of 185 to 186 °C. For the same molecule, in data set [1], the inhibition at 100 µM amounted to 87.5%, the inhibition at 10 µM is 56.2%, the inhibition at 1 µM amounted to 46% and the inhibition at 0.1 µM amounted to 21.4%. Further, in data set [1], the inhibition at 0.01 µM was 9.8%. In data set [2], the inhibition at 100 µM was 70.1%, the inhibition at 10 µM was 76.9%, the inhibition at 1 µM is 67% and the inhibition at 0.1 µM worked out at 3.7%. The inhibition at 0.01 µM in data set [2] was found to be 6.6%. Moreover, in data set [3], the inhibition at 100 µM was found to be 100%, the inhibition at 10 µM turned out to be 98.5%, the inhibition at 1 µM stood at 97.7% and the inhibition at 0.1 µM amounted to 77.4%. The inhibition at 0.01 µM in data set [3] stood at 1.1%. Also, in the data set with mice leukemia cell P388, the inhibition at 100 µM was 51.7%, the inhibition at 10 µM was 10.2%, the inhibition at 1 µM was 6.4% and the inhibition at 0.1 µM turned out to be 2.2%. In the data set on mice leukemia cell P388, the inhibition at 0.01 µM came to 4.3%. In data set [4], the inhibition at 100 µM amounted to 34.4%, the inhibition at 10 µM is 0%, the inhibition at 1 µM is 0% and the inhibition at 0.1 µM amounted to 0%. Further, the inhibition at 0.01 µM in data set [4] came to 0%.
`CN(C)CCn1c(=O)c2ccc3sc4ccccc4c4ccc(c1=O)c2c34` [compound 2, N-(N′,N′-dimethylaminoethyl)benzo[k, l]thioxanthene-3,4-dicarboximide]: the melting point lay within 212 to 213 °C. Besides, in data set [1], the inhibition at 100 µM is 96.2%, the inhibition at 10 µM stood at 88%, the inhibition at 1 µM was 37.8% and the inhibition at 0.1 µM amounted to 28.5%. Further, the inhibition at 0.01 µM in data set [1] is 0.8%. Also, in data set [2], the inhibition at 100 µM was found to be 95.1%, the inhibition at 10 µM is 90.7%, the inhibition at 1 µM stood at 72.9% and the inhibition at 0.1 µM was determined as 24.9%. In data set [2], the inhibition at 0.01 µM was 14.2%. In data set [3], the inhibition at 100 µM was determined as 100%, the inhibition at 10 µM is 100%, the inhibition at 1 µM amounted to 97.7% and the inhibition at 0.1 µM turned out to be 42.3%. In data set [3], the inhibition at 0.01 µM is 0%. Also, in the data set on mice leukemia cell P388, the inhibition at 100 µM stood at 99.9%, the inhibition at 10 µM is 78.9%, the inhibition at 1 µM turned out to be 22.2% and the inhibition at 0.1 µM turned out to be 7.7%. Also, in the data set with mice leukemia cell P388, the inhibition at 0.01 µM is 10.1%. Further, in data set [4], the inhibition at 100 µM is 91.3%, the inhibition at 10 µM worked out at 90.2%, the inhibition at 1 µM is 75.1% and the inhibition at 0.1 µM was 50.2%. Besides, the inhibition at 0.01 µM in data set [4] was 16.9%.
As to `CN(C)CCCn1c(=O)c2ccc3sc4ccccc4c4ccc(c1=O)c2c34` [compound 4, N-(N′, N′-dimethylaminopropyl)benzo[k, l]thioxanthene-3,4-dicarboximide], the melting point lay in the range of 202 to 203 °C. In data set [1], the inhibition at 100 µM worked out at 94.5%, the inhibition at 10 µM is 91.8%, the inhibition at 1 µM was found to be 39.1% and the inhibition at 0.1 µM was determined as 0.2%. The inhibition at 0.01 µM in data set [1] amounted to 13.8%. For the same molecule, in data set [2], the inhibition at 100 µM was 94.6%, the inhibition at 10 µM turned out to be 95%, the inhibition at 1 µM was 50.7% and the inhibition at 0.1 µM was 24.3%. The inhibition at 0.01 µM in data set [2] turned out to be 17.9%. In addition, in data set [3], the inhibition at 100 µM was 100%, the inhibition at 10 µM was 99.7%, the inhibition at 1 µM amounted to 93.9% and the inhibition at 0.1 µM came to 22.3%. In data set [3], the inhibition at 0.01 µM worked out at 0%. Besides, in the data set with mice leukemia cell P388, the inhibition at 100 µM came to 100%, the inhibition at 10 µM was 100%, the inhibition at 1 µM is 23.1% and the inhibition at 0.1 µM was 11%. The inhibition at 0.01 µM with mice leukemia cell P388 came to 16.2%. In data set [4], the inhibition at 100 µM turned out to be 80.3%, the inhibition at 10 µM was found to be 92.9%, the inhibition at 1 µM worked out at 73.5% and the inhibition at 0.1 µM was determined as 33.4%. The inhibition at 0.01 µM in data set [4] amounted to 17.3%.
Molecule `COc1ccc(-c2nc3cc4c5c(cccc5c3s2)C(=O)N(CCN(C)C)C4=O)cc1` [compound 9, N-(N′,N′-dimethylaminoethyl)-4H, 6H-9-p-methoxy phenyl-benzo[de]thiazol[5,4-g]isoquinoline-4,6-diketone] yielded a melting point of 216 to 217 °C. For the same molecule, the “activity against mice S180 sarcoma (in words)” value in the data set with S-180 sarcoma is “not potent; also recorded: active against S180 sarcoma, but weaker than C16”. Moreover, in the data set on mice leukemia cell P388, the inhibition at 100 µM stood at 95.1%, the inhibition at 10 µM is 92.3%, the inhibition at 1 µM is 78.2% and the inhibition at 0.1 µM came to 15.2%. In addition, in the data set on mice leukemia cell P388, the inhibition at 0.01 µM amounted to 21%. Also, in data set [4], the inhibition at 100 µM was determined as 94.9%, the inhibition at 10 µM worked out at 93.9%, the inhibition at 1 µM was found to be 94.5% and the inhibition at 0.1 µM stood at 69.4%. For the same molecule, the inhibition at 0.01 µM in data set [4] was 44.5%.
In the case of `CN(C)CCN1C(=O)c2cccc3c2c(cc2nnsc23)C1=O` [compound 11, 5-(N′,N′-dimethylaminoethyl)-4H, 6H-benzo[de]-1,2,3,-thiadiazol[5,4-g]isoquinoline-4,6-diketone], the melting point lay in the range of 178 to 179 °C. Also, in data set [1], the inhibition at 100 µM came to 96.5%, the inhibition at 10 µM is 97.1%, the inhibition at 1 µM is 38.9% and the inhibition at 0.1 µM came out at 16.7%. Further, in data set [1], the inhibition at 0.01 µM was determined as 1.1%. In data set [2], the inhibition at 100 µM came to 95.7%, the inhibition at 10 µM came to 90.9%, the inhibition at 1 µM was 74% and the inhibition at 0.1 µM amounted to 20.1%. In data set [2], the inhibition at 0.01 µM came to 24.4%. In data set [3], the inhibition at 100 µM turned out to be 100%, the inhibition at 10 µM was 100%, the inhibition at 1 µM was determined as 100% and the inhibition at 0.1 µM was found to be 82.8%. Besides, in data set [3], the inhibition at 0.01 µM was 0%. Further, in the data set with mice leukemia cell P388, the inhibition at 100 µM is 98.7%, the inhibition at 10 µM turned out to be 92.7%, the inhibition at 1 µM turned out to be 42.2% and the inhibition at 0.1 µM is 13.8%. In the data set on mice leukemia cell P388, the inhibition at 0.01 µM amounted to 10.7%. For the same molecule, in data set [4], the inhibition at 100 µM is 95.7%, the inhibition at 10 µM stood at 93.7%, the inhibition at 1 µM is 94.5% and the inhibition at 0.1 µM turned out to be 76.6%. Further, in data set [4], the inhibition at 0.01 µM turned out to be 20.2%.
